Laboratory results taken from patent publication US9428773B2, “Methods of producing acetoin and 2,3-butanediol using photosynthetic microorganisms” (The Regents of the University of California, priority 2012, dated 2016).
Blank lines part the entries; values can stand above or below the compound they belong to.

Tests used:
S. elongatus [1] = tested on: S. elongatus
Protocol: (§1) Unless otherwise specified, S. elongatus strains were cultured in BG-11 medium (45) with the addition of 50 mM NaHCO3. Cells were grown at 30° C. with rotary shaking (100 rpm) and light (55 μE s^−1 m^−2) provided by four 86 cm 20 W fluorescent tubes 5 cm above the cell cultures. Cell growth was monitored by measuring OD730.
(§2) To evaluate acetoin and 23BD toxicity, we tested the growth of S. elongatus over 72 h in the presence of 23BD or acetoin.

S. elongatus [2] = assay: growth of S. elongatus over 72 h in the presence of 23BD or acetoin (toxicity)
Protocol: as §1, §2

S. elongatus [3] = details: cited from earlier work

growth of S. elongatus in the presence of 10 g/L 23BD (S. elongatus [1]): barely inhibited | growth of S. elongatus in the presence of 30 g/L 23BD (S. elongatus [1]): still exhibited growth
SMILES: CC(O)C(C)O (centres unmarked) [23BD, 2,3-butanediol]
toxicity in S. elongatus (in words) (S. elongatus [1]): low toxicity

SMILES: CC(=O)C(C)O (centres unmarked) [acetoin]
decrease of growth of S. elongatus (S. elongatus [2]; 0.2 g/L acetoin, 72 h): approximately 50% | concentration at which growth of S. elongatus stopped (S. elongatus [2]; 72 h): 1000 µg/mL | concentration above which toxic in S. elongatus (S. elongatus [2]; FIG. 2A): above 0.1 g/L

SMILES: CC(C)CO [isobutanol]
concentration that prevents growth of S. elongatus (S. elongatus [3]): 1000 µg/mL

SMILES: CC(C)C=O [isobutyraldehyde]
concentration that prevents growth of S. elongatus (S. elongatus [3]): 1000 µg/mL
